Patent publication US7018987B1 (priority 1998, dated 2006)
Converted amounts (≈) assume the structure as drawn. Read-outs that look alike come from different tables or passages of the source.

Tests used:
DU-145 = format: cell-based, Human
FADU = format: cell-based, Human
NCI-H460 = format: cell-based, Human
SW1736 = format: cell-based, Human
SK-N-SH = format: cell-based, Human
BXPC-3 = format: cell-based, Human
[1] = system: P388 lymphocytic leukemia; format: cell-based, Murine
Micrococcus luteus = assay: Disk susceptibility testing, Micrococcus luteus; format: cell-based
Neisseria gonorrhoeae = format: cell-based
[2] = system: eight bacteria and two fungi tested; assay: Disk susceptibility testing, whole microbe panel; format: cell-based; conditions: disk susceptibility, bacteria and fungi tested
Escherichia coli = conditions: disk susceptibility
[3] = system: Stenotrophomonas maltophilia; conditions: disk susceptibility
Enterobacter cloacae = conditions: disk susceptibility
Streptococcus pneumoniae = conditions: disk susceptibility
Staphylococcus aureus = conditions: disk susceptibility
Enterococcus faecalis = conditions: disk susceptibility
SK-Mel-3 = format: cell-based, Human
tubulin = conditions: reported (Lin et al., 1988); cited from earlier work
full-panel NCl screen = conditions: cited from earlier work; for GI50: read-out: mean panel GI50 concentration
Candida albicans = assay: Disk susceptibility testing, Candida albicans; format: cell-based
Cryptococcus neoformans = assay: Disk susceptibility testing, Cryptococcus neoformans; format: cell-based
Solubility in water = conditions: for Solubility: mg per 1 ml water at 25° C.
[4] = murine P-388 leukemia, 48 hours
[5] = Neisseria gonorrhoeae, disk susceptibility

Row | Molecule | GI50 Prostate DU-145 (DU-145; DU-145, 48 hours) [mg/L] | GI50 Pharynx FADU (FADU; FADU, 48 hours) [mg/L] | GI50 Lung-NSC NCI-H460 (NCI-H460; NCI-H460, 48 hours) [mg/L] | GI50 Thyroid SW1736 (SW1736; SW1736, 48 hours) [mg/L] | GI50 Neuroblast SK-N-SH (SK-N-SH; SK-N-SH, 48 hours) [mg/L] | GI50 Pancreas BXPC-3 (BXPC-3; BXPC-3, 48 hours) [mg/L] | ED50 P-388 [1, 4] [mg/L] | Minimum inhibitory amount per disk (Neisseria gonorrhoeae; [5]) | antimicrobial growth inhibition (in words) [2] | GI50 Melanoma SK-Mel-3 (SK-Mel-3; SK-Mel-3, 48 hours) [mg/L] | Solubility (Solubility in water) [mg/mL] | also measured
1 | COc1ccc(/C=C/c2cc(OC)c(OC)c(OC)c2)cc1O [Compound 4a, (E)-combretastatin A-4] | 0.037 (≈ 0.117 µM) | 0.040 (≈ 0.126 µM) | 0.038 (≈ 0.12 µM) | 0.080 (≈ 0.253 µM) | 0.029 (≈ 0.0917 µM) | 3.9 (≈ 12.3 µM) | 0.280 (≈ 0.885 µM) | – | – | – | – | Minimum inhibitory amount per disk (Micrococcus luteus): 25–50 μg/disk
2 | CN(C)C1C(=O)C(C(N)=O)=C(O)C2(O)C(=O)C3=C(O)c4c(O)cccc4C(C)(O)C3CC12.COc1ccc(C=Cc2cc(OC)c(OC)c(OC)c2)cc1OP(=O)(O)O (stereo not drawn) [Compound 5r, Tetracycline combretastatin A-4 3-O-phosphate] | 0.058 | 0.0055 | 0.0046 | 0.012 | 0.0032 | 0.57 | 0.037 | 3.12–6.25 μg/disk | inhibited the growth of all Gram-negative and Gram-positive bacteria tested | – | – | Minimum inhibitory amount per disk (Micrococcus luteus): 0.78–1.56 μg/disk; Minimum inhibitory concentration (Escherichia coli): 3.12–6.25 μg/disk; Minimum inhibitory concentration [3]: 6.25–12.5 μg/disk; Minimum inhibitory concentration (Enterobacter cloacae): 3.12–6.25 μg/disk; Minimum inhibitory concentration (Streptococcus pneumoniae): 0.195–0.39 μg/disk; Minimum inhibitory concentration (Staphylococcus aureus): 0.195–0.39 μg/disk; Minimum inhibitory concentration (Enterococcus faecalis): 25–50 μg/disk
3 | Combretastatin A-4 [Compound 1a, reference compound] | – | – | – | – | – | – | – | – | – | – | – | GI50 Prostate DU-145 (DU-145): 0.00076 mg/L; GI50 Pharynx FADU (FADU): 0.00065 mg/L; GI50 Lung-NSC NCI-H460 (NCI-H460): 0.00056 mg/L; GI50 Thyroid SW1736 (SW1736): 0.00071 mg/L; GI50 Neuroblast SK-N-SH (SK-N-SH): 0.00026 mg/L; GI50 Pancreas BXPC-3 (BXPC-3): >0.1 mg/L; GI50 Melanoma SK-Mel-3 (SK-Mel-3): 0.0002 mg/L; ED50 P-388 [1]: 0.00266 mg/L; Minimum inhibitory amount per disk (Neisseria gonorrhoeae): 25–50 μg/disk; growth inhibition of Neisseria gonorrhoeae (in words) (Neisseria gonorrhoeae): inhibited growth; inhibition at the colchicine binding site of tubulin (tubulin): 97%; GI50 (full-panel NCl screen): 6.61 nM
4 | Manganese combretastatin A-4 3′-O-phosphate [Compound 5e] | <0.001 | 0.00091 | 0.0015 | 14.7 | 0.014 | 0.20 | 0.016 | 6.25–12.5 μg/disk | inhibitory to opportunistic fungi | 0.0036 | 3 | Minimum inhibitory concentration (Candida albicans): 25–50 μg/disk; Minimum inhibitory concentration (Cryptococcus neoformans): 12.5–25 μg/disk
5 | Piperazine combretastatin A-4 3′-O-phosphate [Compound 5i] | 0.0011 | 0.0018 | 0.0028 | 23.5 | 0.021 | 0.19 | 0.0016 | 25–50 μg/disk | inhibitory to opportunistic fungi | 0.0036 | – | Minimum inhibitory concentration (Candida albicans): 50–100 μg/disk; Minimum inhibitory concentration (Cryptococcus neoformans): 25–50 μg/disk
6 | Sodium (E)-combretastatin A-4 3′-O-phosphate [Compound 4c] | 0.044 | 0.071 | 0.038 | 11.2 | 3.1 | 4.0 | 0.02 | 50–100 μg/disk | – | 0.036 | 4 | solubility in water (in words) (Solubility in water; water): sparingly soluble in water
7 | Sodium (Z)-combretastatin A-4 3′-O-phosphate [Compound 3d] | 0.0072 | 0.0045 | 0.0035 | 0.0061 | 0.0025 | 0.23 | 0.00292 | 50–100 μg/disk | – | – | 20 | growth inhibition of Neisseria gonorrhoeae (in words) (Neisseria gonorrhoeae; disk susceptibility): inhibited growth; Pearson correlation coefficient, TGI-COMPARE differential cytotoxicity profile versus combretastatin A-4 1a (full-panel NCl screen; full-panel NCI screen, previously reported): 0.91; GI50 (full-panel NCl screen; full-panel NCI screen, quadruplicate, three concentration ranges, previously reported): 6.89 nM
